Data reported in publication PMC5462828 (Scientific Reports, 2017).

T1: RXFP1 stably expressed in HEK293 cells (HEK-RXFP1) (human, UniProt Q9HBX9 1-757)
T1 sequence (looked up): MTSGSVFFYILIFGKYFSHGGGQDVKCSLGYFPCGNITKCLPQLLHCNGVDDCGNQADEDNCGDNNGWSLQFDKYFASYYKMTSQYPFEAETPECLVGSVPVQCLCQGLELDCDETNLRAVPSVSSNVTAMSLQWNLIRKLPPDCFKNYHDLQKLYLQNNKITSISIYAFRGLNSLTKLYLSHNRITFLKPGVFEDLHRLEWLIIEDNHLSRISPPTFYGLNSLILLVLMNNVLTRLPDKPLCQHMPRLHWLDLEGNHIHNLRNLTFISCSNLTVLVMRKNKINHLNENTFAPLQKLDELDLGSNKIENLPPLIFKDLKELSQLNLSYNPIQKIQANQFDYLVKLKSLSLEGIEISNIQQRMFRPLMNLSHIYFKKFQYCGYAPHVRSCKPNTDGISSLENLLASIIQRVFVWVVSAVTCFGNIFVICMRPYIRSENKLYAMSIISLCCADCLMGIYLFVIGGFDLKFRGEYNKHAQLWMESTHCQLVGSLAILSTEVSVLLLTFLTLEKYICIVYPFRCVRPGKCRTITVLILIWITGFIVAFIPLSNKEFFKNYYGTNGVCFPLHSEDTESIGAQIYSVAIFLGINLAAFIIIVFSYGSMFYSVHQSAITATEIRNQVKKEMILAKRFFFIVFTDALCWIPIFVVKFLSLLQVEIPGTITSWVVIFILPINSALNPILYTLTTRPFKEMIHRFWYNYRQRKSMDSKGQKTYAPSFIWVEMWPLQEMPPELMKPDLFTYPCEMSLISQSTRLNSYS


How the values were obtained:
[1] = molecular target: RXFP1 stably expressed in HEK293 cells (HEK-RXFP1) (human) (UniProt Q9HBX9); assay: radioligand binding; kinetics on HEK-RXFP1 cells in 96-well plates, with ML290 (1 μM): association with 100 pM 125I-H2 relaxin over time; dissociation after 90 min equilibration, started with 200 nM unlabelled H2 relaxin
[2] = molecular target: RXFP1 stably expressed in HEK293 cells (HEK-RXFP1) (human) (UniProt Q9HBX9); assay: radioligand binding; kinetics on HEK-RXFP1 cells in 96-well plates, without ML290: association with 100 pM 125I-H2 relaxin over time; dissociation after 90 min equilibration, started with 200 nM unlabelled H2 relaxin
[3] = tested on: ML290-mediated cGMP accumulation; assay: Effect of signalling pathway inhibitors on ML290-mediated cGMP accumulation in human primary vascular cells; format: cell-based; conditions: NF449 10 μM, NF023 10 μM, mSIRK 5 μM, gallein 50 μM, Wortmannin 100 nM, 30 min
Description: (§1) cAMP and cGMP accumulation was determined as previously described, [16]. Briefly, HEK293 cells were plated in 96-well plates (5 × 10^4 cells/well) and human primary cells were plated into 24-well plates (1 × 10^5 cells/well) and grown overnight to achieve a confluent monolayer. Prior to stimulation, HEK cells were serum-starved in DMEM containing 0.5% FBS v/v and primary cells were serum-starved in M199 medium for 4–6 hours. […] Levels of cAMP and cGMP were detected according to the manufacturer’s instructions (Perkin-Elmer, Australia).

[4] = tested on: ML290-mediated cAMP accumulation; assay: Effect of signalling pathway inhibitors on ML290-mediated cAMP accumulation in human primary vascular cells; format: cell-based; conditions: NF449 10 μM, NF023 10 μM, mSIRK 5 μM, gallein 50 μM, Wortmannin 100 nM, 30 min
Description: as §1

p-Smad3 = assay: Smad3 phosphorylation assay in human cardiac fibroblasts; format: cell-based; conditions: HCFs; TGF-β1 2 ng/ml alone; 72 hours
Description: (§2) Cells were serum-starved in M199 medium for 24 hours prior sample collection. Cells were used between passages 1–4, while all experiments were performed four separate times in duplicate. Levels of p-Smad2 and p-Smad3 were detected using Sure-fire kits according to the manufacturer’s instructions (Perkin-Elmer, Australia).

p-Smad2 = assay: Smad2 phosphorylation assay in human cardiac fibroblasts; format: cell-based; conditions: HCFs; TGF-β1 2 ng/ml alone; 72 hours
Description: as §2

[5] = molecular target: T1, RXFP1 stably expressed in HEK293 cells …; assay: cell-based or functional assay
[6] = molecular target: T1, RXFP1 stably expressed in HEK293 cells …; assay: radioligand binding; competition on HEK-RXFP1 cells: 100 pM 125I-H2 relaxin against increasing unlabelled H2 relaxin, in the presence of ML290 (1 μM), 90 min, room temperature; conditions: one partner purified
[7] = molecular target: T1, RXFP1 stably expressed in HEK293 cells …; assay: radioligand binding; competition on HEK-RXFP1 cells: 100 pM 125I-H2 relaxin against increasing unlabelled H2 relaxin, vehicle (0.1% DMSO), 90 min, room temperature; conditions: one partner purified

Molecule	ML290-mediated cGMP accumulation after inhibitor ([3]; HCAECs)	ML290-mediated cGMP accumulation after inhibitor ([3]; HUASMCs, L9A 5 μM)	ML290-mediated cGMP accumulation after inhibitor ([3]; HUVECs)	ML290-mediated cGMP accumulation after inhibitor ([3]; HUVSMCs, L9A 5 μM)	ML290-mediated cAMP accumulation after inhibitor ([4]; HCAECs)	ML290-mediated cAMP accumulation after inhibitor ([4]; HUASMCs, L9A 5 μM)	ML290-mediated cAMP accumulation after inhibitor ([4]; HUVECs)	ML290-mediated cAMP accumulation after inhibitor ([4]; HUVSMCs, L9A 5 μM)	also measured
125I-H2 relaxin (ligand)									koff [1]: 0.000667 s⁻¹; kon [1]: 4.67e+06 M⁻¹ s⁻¹; koff [2]: 0.000833 s⁻¹; kon [2]: 3.5e+06 M⁻¹ s⁻¹
O=C(Nc1cccc(C(=O)Nc2ccc(S(=O)(=O)O)c3cc(S(=O)(=O)O)cc(S(=O)(=O)O)c23)c1)Nc1cccc(C(=O)Nc2ccc(S(=O)(=O)O)c3cc(S(=O)(=O)O)cc(S(=O)(=O)O)c23)c1 [NF023]	not significantly affected	no effect	not significantly affected	no effect	unaffected	no effect	unaffected	no effect	
O=C(Nc1cc(C(=O)Nc2ccc(S(=O)(=O)O)cc2S(=O)(=O)O)cc(C(=O)Nc2ccc(S(=O)(=O)O)cc2S(=O)(=O)O)c1)Nc1cc(C(=O)Nc2ccc(S(=O)(=O)O)cc2S(=O)(=O)O)cc(C(=O)Nc2ccc(S(=O)(=O)O)cc2S(=O)(=O)O)c1 [NF449]	11.9 ± 5.3 % of the response to DEA	24.3 ± 5.7%	22.3 ± 3.0 % of the response to DEA	18.8 ± 3.7%	0.8 ± 3.9 % response to 50 μM forskolin	6.0 ± 7.3 % response to 50 μM forskolin	0.8 ± 5.7 % response to 50 μM forskolin	4.7 ± 2.5 % response to 50 μM forskolin	
COC[C@H]1OC(=O)c2coc3c2[C@@]1(C)C1=C(C3=O)[C@@H]2CCC(=O)[C@@]2(C)C[C@H]1OC(C)=O [Wortmannin]	not significantly affected	21.8 ± 3.4%	not significantly affected	14.3 ± 3.3%	unaffected	7.2 ± 2.2 % response to 50 μM forskolin	unaffected	6.4 ± 2.2 % response to 50 μM forskolin	
O=C1OC2(c3ccccc31)c1ccc(O)c(O)c1Oc1c2ccc(O)c1O [gallein]	not significantly affected	15.6 ± 2.6%	not significantly affected	14.3 ± 3.8%	unaffected	5.2 ± 1.4 % response to 50 μM forskolin	unaffected	3.2 ± 3.4 % response to 50 μM forskolin	
TGF-β1: pro-fibrotic cytokine used to induce Smad2 and Smad3 phosphorylation									increase in p-Smad3 compared to vehicle-treated samples (p-Smad3): 1.41 ± 0.07 fold; increase in p-Smad2 compared to vehicle-treated samples (p-Smad2): 2.21 ± 0.17 fold
Human gene 2 relaxin (H2 relaxin) (ligand) chain 1: QLYSALANKCCHVGCTKRSLARFC chain 2: DSWMEEVIKLCGRELVRAQIAICGMSTWS									cAMP accumulation in HCAEC (endogenous RXFP1), pEC50 (efficacy in brackets as % of forskolin 50 μM) [5]: 8.9; cGMP accumulation in HCAEC (endogenous RXFP1), pEC50 (efficacy in brackets as % of DEA) [5]: 9.2; cGMP accumulation in HCF (endogenous RXFP1), 40 min, pEC50 (efficacy in brackets as % of DEA) [5]: 9.6; p-ERK1/2 in HEK-RXFP1 cells, 5 min, pEC50 (efficacy in brackets as % of 10% FBS) [5]: 9.5; p-p38MAPK in HEK-RXFP1 cells, 15 min, pEC50 (efficacy in brackets as % of sorbitol) [5]: 8.9; pKi [6]: 9.7; pKi [7]: 9.5
